According to US9670197B2, “Small molecule modifiers of the Hec1-Nek2 interaction in G2/M” (The Regents of the University of California, priority 2013, dated 2017):

Experiments:
[1] = test system: HS27; experiment: Growth inhibition, normal skin fibroblast HS27; format: cell-based; details: for IC50: Homo sapiens, Table 2, Fibroblast, HS27, read-out: cell growth suppression; for growth inhibitory effect on non-tumorgenic fibroblast cells: data not shown
Description: (§1) Cell lines and establishment of stable cell lines. Human breast cancer cell lines MDA-MB-231 and MDA-MB-468, osteosarcoma line U20S, cervical adenocarcinoma line HeLa, and normal skin fibroblast Hs27 were maintained in DMEM medium (Invitrogen, Grand Island, N.Y.) supplemented 10% fetal bovine serum (FBS) and 1% penicillin-streptomycin. The leukemia cell line K562 and glioblastoma cell line T98G were grown in RPMI 1640 supplemented 10% FBS and 1% penicillin-streptomycin. Normal mammary gland epithelial cell line MCF10A was cultured in DMEM/F12 (50:50) plus 5% horse serum, 0.1 μg/mL cholera toxin, 10 μg/mL insulin, 0.5 μg/mL hydrocortisone, and 20 ng/mL epidermal growth factor. To establish MDA-MB-468 cells that stably expressed each individual GFP-Hec1 deletion construct described above, cells were infected with retrovirus expressing GFP-Hec1 WT, GFP-Hec1 W395A and GFP-Hec1 WLK/AAA, and were selected with 2 μg/ml puromycin.

[2] = test system: HeLa; experiment: Cancer cell growth inhibition, HeLa; format: cell-based; details: Homo sapiens; Table 2, Cervical, HeLa; read-out: cancer cell growth suppression
Description: as §1

[3] = test system: MB468; experiment: Cancer cell growth inhibition, MB468 (MDA-MB-468); format: cell-based; details: Homo sapiens, Table 2, Breast adenocarcinoma, read-out: cancer cell growth suppression
[4] = test system: Aurora A; experiment: Aurora A expression in treated HeLa cells, western blot; format: cell-based; details: dose series
Description: (§2) INH-induced Nek2 degradation; INH-inhibition of Hec1 phosphorylation by Nek2. […] To evaluate whether INH treatment affected cell cycle profile or Nek2 mRNA level, we performed FACS and real-time PCR analysis.
(§3) Protein extraction and western blot analysis. The protein extractions and western blot analyses of Examples 4-6 were conducted as follows. Cell extracts were prepared and equal amounts of protein were separated by SDS-PAGE (10% w/v gel) followed by electrophoretic transfer to PVDF membranes (Millipore, Billerica, Mass.). After blocking with 5% w/v powdered non-fat milk, the membrane was incubated with different antibodies for overnight at 4° C. and treated for 1 hr with horseradish peroxidase-conjugated goat anti-mouse IgG and goat anti-rabbit IgG antibodies (GeneTex, Irvine, Calif.). ECL detection of the horseradish peroxidase reaction was performed according to the manufacturer's instructions (Millipore, Billerica, Mass.). Protein signal was measured on a LAS 4000 mini Imaging System (Fujifilm, Valhalla, N.Y.).

[5] = test system: cyclin B1; experiment: Cyclin B1 level in treated HeLa cells, western blot; format: cell-based; details: dose series
Description: as §2, §3

[6] = test system: U2OS; experiment: Cancer cell growth inhibition, U2OS osteosarcoma; format: cell-based; details: Homo sapiens, Table 2, Osteosarcoma, read-out: cancer cell growth suppression
Description: as §1

[7] = test system: MDA-MB-468 breast cancer cells tumor xenografts; experiment: Breast tumor xenograft model; format: in vivo, athymic nude mice; details: versus vehicle; for tumor growth rate: thrice-weekly i.p., 10 or 50 mg/kg INH41, 5 or 20 mg/kg INH154, 6.5 weeks; for percentage of proliferating tumor cells (BrdU staining) / phosphorylation of Hec1 at S165 in tumors: tumors harvested one week after last injection
Description: INH inhibition of breast tumor growth in xenograft model. We performed in vivo xenograft mouse experiments to examine the efficacy of INHs in accordance with guidelines and protocols of the University of California at Irvine Animal Research Committee. MDA-MB-468 breast cancer cells (2×10^6) were inoculated into mammary fat pads of 6-8 week old athymic nude mice mice (nu/nu; Harlan Sprague-Dawley Inc., Indianapolis, Ind.) to form tumor xenografts. […] Administration of control and INH treatments was carried out for 6.5 weeks and tumor sizes were measured. Mice body weights and tumor sizes were measured twice weekly. Tumor volume was calculated as (length×width^2)/2 (in mm), and data were presented as mean tumor volume±SEM.
One week after the last injections were administered, mice were sacrificed and their tumors were harvested for immunohistochemistry analysis. […] Error bars represent SE (n=4) in FIGS. 2C and 2D.
Immunohistochemistry analysis was conducted as follows. Paraffin-embedded tumor sections (5 μm) were incubated with primary antibody, counterstained with hematoxylin, and detected using a LSAB™ kit (DakoCytomation) according to the manufacturer's instructions. BrdU antibody was purchased from GeneTex, Irvine, Calif. and Hec1 pS165 antibody was prepared as described in Wei et al. Phosphorylation of the Ndc80 complex protein, HEC1, by Nek2 kinase modulates chromosome alignment and signaling of the spindle assembly checkpoint. Molecular biology of the cell 22, 3584-3594 (2011), hereby incorporated by reference in its entirety.

[8] = test system: T98G; experiment: Cancer cell growth inhibition, T98G glioblastoma; format: cell-based; details: Homo sapiens, Table 2, Glioblastoma, read-out: cancer cell growth suppression
Description: as §1

[9] = test system: HeLa cells; experiment: Apoptosis assay, flow cytometry with Annexin-V staining; format: cell-based, human; details: after 48 hours, DMSO 1.8%
Description: INH-triggered mitotic catastrophe. […] Error bars represent SE, n=>200 per sample in FIG. 3A. […] Error bars represent SE n=200 in FIG. 3B. Over time, the accumulation of chromosomal and spindle abnormalities led to cell death.
The apoptosis assay was conducted as follows. 1×10^6 cells were collected and resuspended in 100 μl binding buffer (10 mM HEPES, pH 7.4; 140 mM NaCl; 2.5 mM CaCl2) after INH or control treatment for 48 hrs. To the collected cells was added 5 μl of Annexin V-FITC and 1 μl of propidium iodide (PI, […]). The cells were then gently vortexed and incubated for 15 minutes at room temperature in the dark. The samples were analyzed by flow cytometry after an additional 400 μl of binding buffer was added to each tube.

| SMILES | IC50 [1] [µM] | growth inhibitory effect on non-tumorgenic fibroblast cells [1] | IC50 [2] [nM] | IC50 [3] [nM] | expression of Aurora A [4] | change in cyclin B1 [5] | IC50 [6] [nM] | tumor growth rate [7] | percentage of proliferating tumor cells (BrdU staining) [7] | phosphorylation of Hec1 at S165 in tumors [7] | IC50 [8] [nM] | percentage of apoptotic cells [9] [%] |
| --- | --- | --- | --- | --- | --- | --- | --- | --- | --- | --- | --- | --- |
| Cc1cc(C)c(-c2csc(C(=O)c3ccncc3)n2)c(C)c1 [INH41, (4-mesitylthiazol-2-yl)(pyridin-4-yl)methanone] | 62 | Neither INH41 nor INH154 had significant growth inhibitory effects | 670 | 690 | not affected | no significant change | 630 | significantly slower | reduced | substantially reduced | 860 | 17.4 |
| Cc1cc(N2CCCCC2)cc(C)c1-c1csc(NC(=O)c2ccncc2)n1 [INH154, N-(4-(2,6-Dimethyl-4-(piperidin-1-yl)phenyl)thiazol-2-yl)isonicotinamide] | 40 | Neither INH41 nor INH154 had significant growth inhibitory effects | – | – | not affected | no significant change | 110 | significantly slower | reduced | substantially reduced | 140 | 67.6 |
